# Reference: patent US12391737B2, “Soluble NPY2 receptor agonists” (Boehringer Ingelheim International GmbH, priority 2020, dated 2025)
# *1 amine or outer side, *2 acyl side, *3 side chain or, on linkers, in order; H or OH if unused. Where a SMILES comes first, the peptide text is derived from it. Side-chain parts run from the residue outwards. The star is where a group is joined. C18 diacid = O=C(O)CCCCCCCCCCCCCCCCC(=O)*; γGlu = O=C(O)[C@H](CCC(=O)[*:2])N[*:1]; Isovaleryl = CC(C)CC(=O)*; Ahx = NCCCCCC(=O)O
# Assays:
# [1] = target: T1, Human Neuropeptide Y2 Receptor (Homo sapiens, UniProt P49146); test: Radioligand binding competition assay (RLB); conditions: Table 3, 125I-PYY(1-36) competition; read-out: Ki
# T1 construct: purchased CHEMICON HTS066M
# T1 sequence (P49146 1-381): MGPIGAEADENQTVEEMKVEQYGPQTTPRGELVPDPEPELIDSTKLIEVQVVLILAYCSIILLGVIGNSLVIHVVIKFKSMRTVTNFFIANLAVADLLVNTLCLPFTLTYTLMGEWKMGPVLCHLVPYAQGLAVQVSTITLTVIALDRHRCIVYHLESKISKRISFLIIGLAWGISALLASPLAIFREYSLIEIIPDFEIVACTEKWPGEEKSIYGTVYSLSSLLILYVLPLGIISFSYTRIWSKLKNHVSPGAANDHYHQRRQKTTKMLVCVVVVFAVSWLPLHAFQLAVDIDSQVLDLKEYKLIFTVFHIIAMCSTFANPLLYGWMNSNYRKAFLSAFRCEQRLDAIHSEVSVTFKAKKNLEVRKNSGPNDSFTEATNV
# Summary of the method: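 Filtration competition binding on membranes from cells expressing the receptor, 0.5 μg protein/well, in 50 mM HEPES, 5 mM MgCl2, 1 mM CaCl2, pH 7.4, with 0.2% ovalbumin. Incubation ran 2 h at room temperature, followed by GF/C filtration and scintillation counting. IC50 came from nonlinear sigmoidal fits.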
# Solubility determination = conditions: for Sol6: pH 6; for Sol7: pH 7
# Summary of the method: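 Sample: TFA-salt peptide at 10 mg/ml target in 0.1 M Na diphosphate, pH 6.4 or 7.0, shaken 2 h RT, filtered, diluted to 1 mg/ml.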
SMILES,Ki [1] [nM],Sol6 (Solubility determination) [mg/mL],Sol7 (Solubility determination) [mg/mL]
"CC(C)CC(=O)N[C@@H](C)C(=O)N1CCC[C@H]1C(=O)N[C@@H](C)C(=O)N[C@@H](CCCCNC(=O)CCCCCNC(=O)CC[C@H](NC(=O)CCCCCCCCCCCCCCCCC(=O)O)C(=O)O)C(=O)N1CCC[C@H]1C(=O)N[C@@H](CCC(=O)O)C(=O)N[C@@H](CCC(=O)O)C(=O)N[C@@H](C)C(=O)N[C@@H](C)C(=O)N[C@H](C(=O)N1CCC[C@H]1C(=O)N[C@@H](CCC(=O)O)C(=O)N[C@@H](CCC(=O)O)C(=O)N[C@@H](CC(C)C)C(=O)N[C@@H](CCC(N)=O)C(=O)N[C@@H](CCCNC(=N)N)C(=O)N[C@@H](Cc1ccc(O)cc1)C(=O)N[C@@H](Cc1ccc(O)cc1)C(=O)N[C@H](C(=O)N[C@@H](CO)C(=O)N[C@@H](CC(C)C)C(=O)N[C@@H](CCCNC(=N)N)C(=O)N[C@@H](Cc1c[nH]cn1)C(=O)N[C@@H](Cc1ccc(O)cc1)C(=O)N[C@@H](Cc1ccc(O)cc1)C(=O)N[C@@H](CC(N)=O)C(=O)N[C@@H](Cc1c[nH]c2ccccc12)C(=O)N[C@@H](CC(C)C)C(=O)N[C@H](C(=O)N[C@@H](CCCNC(=N)N)C(=O)N[C@@H](CCC(N)=O)C(=O)N[C@@H](CCCNC(=N)N)C(=O)N[C@@H](Cc1ccc(O)cc1)C(N)=O)[C@@H](C)O)C(C)C)[C@@H](C)O [Compound 35, N{alpha-4}-(3-methylbutanoyl)-N{epsilon-7}-(6-[(4S)-4-carboxy-4-(17-carboxyheptadecanamido)butanamido]hexanoyl)[4A,6A,7K,9E,11A,13T,18Q,22V,28Y,30W,31L]-hPYY(4-36)]",1.4,0.0,2.4
"CC[C@H](C)[C@H](NC(=O)[C@H](CCC(=O)O)NC(=O)[C@H](CCC(=O)O)NC(=O)[C@@H]1CCCN1C(=O)[C@@H](NC(=O)[C@H](C)NC(=O)[C@H](C)NC(=O)[C@H](CCC(=O)O)NC(=O)[C@H](CCC(=O)O)NC(=O)[C@@H]1CCCN1C(=O)[C@H](CCCCNC(=O)CCCCCNC(=O)CC[C@H](NC(=O)CCCCCCCCCCCCCCCCC(=O)O)C(=O)O)NC(=O)[C@H](C)NC(=O)[C@@H]1CCCN1C(=O)[C@H](C)NC(=O)CC(C)C)[C@@H](C)O)C(=O)N[C@@H](CCC(N)=O)C(=O)N[C@@H](CCCNC(=N)N)C(=O)N[C@@H](Cc1ccc(O)cc1)C(=O)N[C@@H](Cc1ccc(O)cc1)C(=O)N[C@H](C(=O)N[C@@H](CO)C(=O)N[C@@H](CC(C)C)C(=O)N[C@@H](CCCNC(=N)N)C(=O)N[C@@H](Cc1c[nH]cn1)C(=O)N[C@@H](Cc1ccc(O)cc1)C(=O)N[C@@H](Cc1ccc(O)cc1)C(=O)N[C@@H](CC(N)=O)C(=O)N[C@@H](Cc1c[nH]c2ccccc12)C(=O)N[C@@H](CC(C)C)C(=O)N[C@H](C(=O)N[C@@H](CCCNC(=N)N)C(=O)N[C@@H](CCC(N)=O)C(=O)N[C@@H](CCCNC(=N)N)C(=O)N[C@@H](Cc1ccc(O)cc1)C(N)=O)[C@@H](C)O)C(C)C [Compound 36, N{alpha-4}-(3-methylbutanoyl)-N{epsilon-7}-(6-[(4S)-4-carboxy-4-(17-carboxyheptadecanamido)butanamido]hexanoyl)[4A,6A,7K,9E,11A,13T,17I,18Q,22V,28Y,30W,31L]-hPYY(4-36)]",1.25,0.0,0.4
"CC(C)CC(=O)N[C@@H](C)C(=O)N1CCC[C@H]1C(=O)N[C@@H](CCC(=O)O)C(=O)N[C@@H](CCCCNC(=O)CCCCCNC(=O)CC[C@H](NC(=O)CCCCCCCCCCCCCCCCC(=O)O)C(=O)O)C(=O)N1CCC[C@H]1C(=O)N[C@@H](CCC(=O)O)C(=O)N[C@@H](CCC(=O)O)C(=O)N[C@@H](CC(=O)O)C(=O)N[C@@H](C)C(=O)N[C@H](C(=O)N1CCC[C@H]1C(=O)N[C@@H](CCC(=O)O)C(=O)N[C@@H](CCC(=O)O)C(=O)N[C@@H](CC(C)C)C(=O)N[C@@H](CCC(N)=O)C(=O)N[C@@H](CCC(=O)O)C(=O)N[C@@H](Cc1ccc(O)cc1)C(=O)N[C@@H](Cc1ccc(O)cc1)C(=O)N[C@H](C(=O)N[C@@H](CO)C(=O)N[C@@H](CC(C)C)C(=O)N[C@@H](CCCNC(=N)N)C(=O)N[C@@H](Cc1c[nH]cn1)C(=O)N[C@@H](Cc1ccc(O)cc1)C(=O)N[C@@H](Cc1ccc(O)cc1)C(=O)N[C@@H](CC(N)=O)C(=O)N[C@@H](Cc1c[nH]c2ccccc12)C(=O)N[C@@H](CC(C)C)C(=O)N[C@H](C(=O)N[C@@H](CCCNC(=N)N)C(=O)N[C@@H](CCC(N)=O)C(=O)N[C@@H](CCCNC(=N)N)C(=O)N[C@@H](Cc1ccc(O)cc1)C(N)=O)[C@@H](C)O)C(C)C)[C@@H](C)O [Compound 38, N{alpha-4}-(3-methylbutanoyl)-N{epsilon-7}-(6-[(4S)-4-carboxy-4-(17-carboxyheptadecanamido)butanamido]hexanoyl)[4A,7K,9E,13T,18Q,19E,22V,28Y,30W,31L]-hPYY(4-36)]",12.4,10.0,10.0
"CC(C)CC(=O)N[C@@H](C)C(=O)N1CCC[C@H]1C(=O)N[C@@H](CCC(=O)O)C(=O)N[C@@H](CCCCNC(=O)CCCCCNC(=O)CC[C@H](NC(=O)CCCCCCCCCCCCCCCCC(=O)O)C(=O)O)C(=O)N1CCC[C@H]1C(=O)N[C@@H](CCC(=O)O)C(=O)N[C@@H](CCC(=O)O)C(=O)N[C@@H](CC(=O)O)C(=O)N[C@@H](C)C(=O)N[C@@H](CO)C(=O)N1CCC[C@H]1C(=O)N[C@@H](CCC(=O)O)C(=O)N[C@@H](C)C(=O)N[C@@H](CC(C)C)C(=O)N[C@@H](CCC(N)=O)C(=O)N[C@@H](CCC(=O)O)C(=O)N[C@@H](Cc1ccc(O)cc1)C(=O)N[C@@H](Cc1ccc(O)cc1)C(=O)N[C@H](C(=O)N[C@@H](CO)C(=O)N[C@@H](CC(C)C)C(=O)N[C@@H](CCCNC(=N)N)C(=O)N[C@@H](Cc1c[nH]cn1)C(=O)N[C@@H](Cc1ccc(O)cc1)C(=O)N[C@@H](Cc1ccc(O)cc1)C(=O)N[C@@H](CC(N)=O)C(=O)N[C@@H](Cc1c[nH]c2ccccc12)C(=O)N[C@@H](CC(C)C)C(=O)N[C@H](C(=O)N[C@@H](CCCNC(=N)N)C(=O)N[C@@H](CCC(N)=O)C(=O)N[C@@H](CCCNC(=N)N)C(=O)N[C@@H](Cc1ccc(O)cc1)C(N)=O)[C@@H](C)O)C(C)C [Compound 39, N{alpha-4}-(3-methylbutanoyl)-N{epsilon-7}-(6-[(4S)-4-carboxy-4-(17-carboxyheptadecanamido)butanamido]hexanoyl)[4A,7K,9E,16A,18Q,19E,22V,28Y,30W,31L]-hPYY(4-36)]",2.73,10.0,10.0
"CC(C)CC(=O)N[C@@H](C)C(=O)N1CCC[C@H]1C(=O)N[C@@H](CCC(=O)O)C(=O)N[C@@H](CCCCNC(=O)CCCCCNC(=O)CC[C@H](NC(=O)CCCCCCCCCCCCCCCCC(=O)O)C(=O)O)C(=O)N1CCC[C@H]1C(=O)N[C@@H](CCC(=O)O)C(=O)N[C@@H](CCC(=O)O)C(=O)N[C@@H](CC(=O)O)C(=O)N[C@@H](C)C(=O)N[C@@H](CCC(=O)O)C(=O)N1CCC[C@H]1C(=O)N[C@@H](CCC(=O)O)C(=O)N[C@@H](CCC(=O)O)C(=O)N[C@@H](CC(C)C)C(=O)N[C@@H](CCC(N)=O)C(=O)N[C@@H](CCCNC(=N)N)C(=O)N[C@@H](Cc1ccc(O)cc1)C(=O)N[C@@H](Cc1ccc(O)cc1)C(=O)N[C@H](C(=O)N[C@@H](CO)C(=O)N[C@@H](CC(C)C)C(=O)N[C@@H](CCCNC(=N)N)C(=O)N[C@@H](Cc1c[nH]cn1)C(=O)N[C@@H](Cc1ccc(O)cc1)C(=O)N[C@@H](Cc1ccc(O)cc1)C(=O)N[C@@H](CCC(N)=O)C(=O)N[C@@H](Cc1c[nH]c2ccccc12)C(=O)N[C@@H](CC(C)C)C(=O)N[C@H](C(=O)N[C@@H](CCCNC(=N)N)C(=O)N[C@@H](CCC(N)=O)C(=O)N[C@@H](CCCNC(=N)N)C(=O)N[C@@H](Cc1ccc(O)cc1)C(N)=O)[C@@H](C)O)[C@@H](C)O [Compound 41, N{alpha-4}-(3-methylbutanoyl)-N{epsilon-7}-(6-[(4S)-4-carboxy-4-(17-carboxyheptadecanamido)butanamido]hexanoyl)[4A,7K,9E,13E,18Q,22T,28Y,30W,31L]-hPYY(4-36)] (Isovaleryl-APEK([Ahx-γGlu-C18 diacid])PEEDAEPEELQRYYTSLRHYYQWLTRQRY-NH2)",19.8,9.8,10.0
